Source: patent EP0099122A2, “Compositions comprising pepstatin and an histamine H2-receptor antagonist having an enhanced antiulcer activity” (Bristol-Myers Company, priority 1982, dated 1984)

How the values were obtained:
[1] = tested on: HCl-Induced Formation of Gastric Lesions; test: HCl-induced gastric erosions in rats (modified method of Robert et al.); assay type: in vivo, Long Evans rats; details: for enhancement of the inhibitory effect by pepstatin: plus 20 mg/kg pepstatin
Description: In the tests described below, gastric erosions produced in rats by the oral instillation of 1.0 mL of 0.75N HC1 were compared with those in rats which had been pretreated with the most preferred compound of Formula I (of Example 1) or with that compound and pepstatin. Comparison tests utilizing pretreatment with the newer commercial product, ranitidine, and with ranitidine and pepstatin, are also shown. Ranitidine is about 4 and 6 times as potent as cimetidine as an inhibitor of gastric acid secretion by the oral route in the rat and dog, respectively.
A modification of the method of Robert et al., [Gastroenterology, 77, 433-443 (1979)] was employed to produce gastric erosions. Adult male, Long Evans rats weighing 280-300 g (Blue Spruce Farms, Alton, New York) were used. The animals were individually caged and food and water were removed 24 and 18 hours, respectively, prior to testing. On the following day, the test compound was administered orally to the animals 30 minutes before 1.0 mL of 0.75N HC1 was instilled into the stomach by gavage. Animals treated with the combination of the test compound and pepstatin received the test compound 30 minutes before, and a fixed amount of pepstatin (20 mg/kg po) 10 minutes before, the hydrochloric acid was administered. […] One hour after receiving the HC1 solution, the animals were sacrificed with an intraperitoneal injection of 0.2 mL of T-61®, a euthanasia solution (National Laboratories Corp.).
The stomachs were removed from the animals, cut along the greater curvature, opened, rinsed with saline and pinned out flat in a standard position for macroscopic examination and scoring of erosions. The stomachs were photographed with a Polaroid® Close Up camera (Polaroid Corporation) and scoring was determined from the photographs. For scoring purposes, only those erosions with a minimum length of 1 mm were considered. The severity of gastric ulceration was defined for each animal as the sum of the maximum continuous lengths (in mm) of the erosions satisfying the above criteria. Percent inhibition of lesion formation was defined as
(mm erosion, vehicle control') - (mm erosion, test agent) 100. (mm erosion, vehicle control)
Data were analyzed using the t-test for unpaired data' and ED50 values were calculated from the dose response data using probit analysis [Finney, Probit Analysis, 3rd ed., University Press, Cambridge, England (1971)].
The compound of Example 1 and ranitidine (synthesized by the Medicinal Chemistry Research Department of Bristol Laboratories, Division of.Bristol-Myers Company) were dissolved in one equivalent of HC1 and the pH adjusted to 5.5 with NaOH. A suspension of pepstatin (Banyu Pharmaceutical Co. Ltd.) in water was made by homogenizing the compound with a few drops of Tween-80® (Atlas Chemical Industries). Each of these compounds were administered orally by gavage in a volume of 2 mL/kg.

gastric acid secretion = test: Inhibition of gastric acid secretion relative to cimetidine, various animal studies; assay type: in vivo; details: inhibitors of gastric acid secretion, oral route
Description: Based on this potency difference, the oral dosage of the compounds of Examples 1 and 9 would be about 1/20 to 1/25 that of cimetidine, thus reducing the expected incidence of side effects. The usual oral dosage of cimetidine is 300 mg, given four times a day, while the usual dosage of the compounds of Examples 1 and 9 is about 12-15 mg, given four times a day. It was an object of this invention to further reduce the necessary dosage of the compounds of Formula I by the concomitant administration of a peptic activity- inhibitory amount of pepstatin. As will be shown below, such concomitant administration provides about a three-fold increase in potency compared with the administration of an equal amount of the compound of Formula I alone, thus permitting a further three-fold reduction in the dosage of the compound of Formula I.

Nc1c(NCCCOc2cccc(CN3CCCCC3)c2)c(=O)c1=O [Example 1]
Potency Ratio ([1]; compound alone versus compound plus pepstatin (20 mg/kg po)): 3.5 | enhancement of the inhibitory effect by pepstatin ([1]; Example 1 at 25 mg/kg): the difference was not statistically significant | enhancement of the inhibitory effect by pepstatin ([1]; Example 1 at 50 and 75 mg/kg, ranitidine at 25-100 mg/kg): significantly enhanced the inhibitory effect | formation of gastric erosions ([1]; pretreatment po, compound alone, Example 1 at 25, 50 or 75 mg/kg, ranitidine at 25, 50, 75 or 100 mg/kg): decreased the formation of gastric erosions in a dose-related manner | ED50 ([1]; rat, compound po 30 min before 1.0 mL 0.75N HCl, compound alone, probit analysis, read-out: ED50 (mg/kg) for Inhibition of Ulcer Formation, Alone): 115 mg/kg | ED50 (mg/kg) for Inhibition of Ulcer Formation, with Pepstatin ([1]; rat, compound po 30 min before and pepstatin 20 mg/kg po 10 min before 1.0 mL 0.75N HCl): 33 mg/kg | times more potent than cimetidine (gastric acid secretion): 20-25
